Here are results for 24 compounds from PubChem BioAssay AID330 (DTP/NCI, 2004).

The subject of the assay is P388 leukemia ip, CD2F1 mice, survival T/C. Briefly: NCI In Vivo Anticancer Drug Screen. Data for tumor model P388 Leukemia (intraperitoneal) in CD2F1 (CDF1) mice. As to conditions: endpoint: median survival time, higher = longer survival. The gist of the method:
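Mice carrying the transplanted tumor received test compound or vehicle. Survival was recorded in each group, and the value is the treated-group measurement divided by that of the vehicle-treated control group.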

Setting [1] is: dose: 50.0 mg/kg/injection, schedule: Q01DX009 (ip), vehicle: Klucel (hydroxypropylcellulose) (HPC).
Setting [2] is: dose: 100.0 mg/kg/injection, schedule: Q01DX009 (ip), vehicle: Klucel (hydroxypropylcellulose) (HPC).
Where [3] appears, read: dose: 200.0 mg/kg/injection, schedule: Q01DX009 (ip), vehicle: Klucel (hydroxypropylcellulose) (HPC).
[4] abbreviates: dose: 12.5 mg/kg/injection, schedule: Q01DX009 (ip), vehicle: saline with Tween-80.
Where [5] appears, read: dose: 25.0 mg/kg/injection, schedule: Q01DX009 (ip), vehicle: saline with Tween-80.
Where [6] appears, read: dose: 50.0 mg/kg/injection, schedule: Q01DX009 (ip), vehicle: saline with Tween-80.
Setting [7] is: dose: 12.5 mg/kg/injection, schedule: Q01DX005 (ip), vehicle: Klucel (hydroxypropylcellulose) (HPC).
Setting [8] is: dose: 25.0 mg/kg/injection, schedule: Q01DX005 (ip), vehicle: Klucel (hydroxypropylcellulose) (HPC).
The mark [9] stands for this setting: dose: 50.0 mg/kg/injection, schedule: Q01DX005 (ip), vehicle: Klucel (hydroxypropylcellulose) (HPC).
The mark [10] stands for this setting: dose: 50.0 mg/kg/injection, schedule: Q01DX005 (ip), vehicle: saline with Tween-80.
Setting [11] is: dose: 100.0 mg/kg/injection, schedule: Q04DX003 (ip), vehicle: saline with Tween-80.
[12] abbreviates: dose: 200.0 mg/kg/injection, schedule: Q04DX003 (ip), vehicle: saline with Tween-80.
Where [13] appears, read: dose: 100.0 mg/kg/injection, schedule: Q01DX009 (ip), vehicle: saline with Tween-80.
The mark [14] stands for this setting: dose: 200.0 mg/kg/injection, schedule: Q01DX009 (ip), vehicle: saline with Tween-80.
The mark [15] stands for this setting: dose: 100.0 mg/kg/injection, schedule: Q01DX005 (ip), vehicle: Klucel (hydroxypropylcellulose) (HPC).

Each structure is given as a SMILES string. Values joined by “and” are separate entries in the source; they are usually repeats but may differ in a detail not shown here. Identical values can stand only once. Toxic doses and inconclusive results are not listed.

In the case of `C1=CN2C3=NCCN3C3=NCCN3C2c2ccccc21` (configuration not stated), the T/C by setting is: (dose: 12.5 mg/kg/injection, schedule: Q04DX002 (ip), vehicle: Klucel (hydroxypropylcellulose) (HPC)) 102 % of control; (dose: 25.0 mg/kg/injection, schedule: Q04DX002 (ip), vehicle: Klucel (hydroxypropylcellulose) (HPC)) 99 % of control; (dose: 50.0 mg/kg/injection, schedule: Q04DX002 (ip), vehicle: Klucel (hydroxypropylcellulose) (HPC)) 102 % of control.
For the compound `O=c1nc(Oc2ccc([N+](=O)[O-])cc2)nc2ccccn12`, the T/C under setting [1] is 99 % of control, the T/C under setting [2] was 87 % of control and the T/C under setting [3] was 87 % of control.
With `O=C(O)CCCc1cc(I)c(N(CCCl)CCCl)c(I)c1`, the T/C by setting is: under setting [4], 121 % of control; under setting [5], 107 % of control; under setting [6], 121 % of control.
For the compound `CCN(CC)CCOc1ccc(C2c3cc(OC)ccc3CC2Cc2cccc(Cl)c2)cc1` (configuration not stated), the T/C is, setting by setting: (dose: 6.25 mg/kg/injection, schedule: Q01DX005 (ip), vehicle: Klucel (hydroxypropylcellulose) (HPC)) 98 % of control; under setting [7], 95 % of control; under setting [8], 96 % of control; under setting [9], 93 % of control.
Consider `CN(CCC1(C)C(=O)CCc2ccccc21)Cc1ccccc1` (configuration not stated), for which the T/C (dose: 12.5 mg/kg/injection, schedule: Q01DX005 (ip), vehicle: saline with Tween-80) is 102 % of control; the T/C (dose: 25.0 mg/kg/injection, schedule: Q01DX005 (ip), vehicle: saline with Tween-80) was 96 % of control; the T/C under setting [10] is 100 % of control and 96 % of control.
In the case of `CC(C)(C)C(O)c1cccnc1` (configuration not stated), the T/C under setting [11] is 110 % of control and the T/C under setting [12] is 101 % of control.
Consider `Cc1ccccc1C1(O)CCCCC1`, for which the T/C is 105 % of control under setting [6], 107 % of control under setting [13] and 101 % of control under setting [14].
As for `CCC(=NCCN=C(CC)c1cc(C)ccc1O)c1cc(C)ccc1O`, the T/C under setting [9] was 101 % of control; the T/C under setting [15] is 108 % of control; the T/C (dose: 200.0 mg/kg/injection, schedule: Q01DX005 (ip), vehicle: Klucel (hydroxypropylcellulose) (HPC)) was 111 % of control.
Turning to `Clc1ccc(C=Nc2ccc(N=Cc3ccc(Cl)cc3)cc2)cc1`, the T/C is, setting by setting: (dose: 100.0 mg/kg/injection, schedule: Q01DX001 (ip), vehicle: saline with Tween-80) 90 % of control; (dose: 200.0 mg/kg/injection, schedule: Q01DX001 (ip), vehicle: saline with Tween-80) 88 % of control; (dose: 400.0 mg/kg/injection, schedule: Q01DX001 (ip), vehicle: saline with Tween-80) 87 % of control.
`CSc1nccc(=O)n1-c1ccccc1C`: the T/C (dose: 100.0 mg/kg/injection, schedule: Q04DX002 (ip), vehicle: Klucel (hydroxypropylcellulose) (HPC)) was 100 % of control and the T/C (dose: 200.0 mg/kg/injection, schedule: Q04DX002 (ip), vehicle: Klucel (hydroxypropylcellulose) (HPC)) is 102 % of control.
As for `Nc1nc(Cl)c2[nH]c(Cl)nc2n1`, the T/C under setting [7] was 104 % of control; the T/C under setting [8] is 102 % of control; the T/C under setting [9] is 100 % of control and 96 % of control; the T/C under setting [15] was 99 % of control.
As for `CCOC(=O)c1ccc(NC(Cc2ccccc2)=NC(C)(C)C)cc1`, the T/C is 98 % of control under setting [6], 94 % of control under setting [13] and 88 % of control under setting [14].
Take `CN(C)c1ccc(C=Nc2ccc(OCCCCCCCCCCC(=O)O)cc2)cc1`: the T/C runs as follows: under setting [6], 93 % of control; under setting [13], 88 % of control; under setting [14], 90 % of control.
Turning to `COc1ccc(N=Nc2c(C)nn(C(=O)c3ccncc3)c2C)cc1`, the T/C reads like this: under setting [1], 108 % of control; under setting [2], 99 % of control; under setting [3], 101 % of control.
For `OC1(C#Cc2ccccc2)c2ccccc2C(O)(C#Cc2ccccc2)c2cnccc21` (configuration not stated), the T/C is 95 % of control under setting [6], 93 % of control under setting [13] and 87 % of control under setting [14].
In the case of `CCCCCCCCCCCCOC(=O)CN=C=O`, the T/C (dose: 50.0 mg/kg/injection, schedule: Q01DX009 (ip), vehicle: saline) was 100 % of control and 101 % of control; the T/C (dose: 100.0 mg/kg/injection, schedule: Q01DX009 (ip), vehicle: saline) was 100 % of control; the T/C (dose: 200.0 mg/kg/injection, schedule: Q01DX009 (ip), vehicle: saline) is 107 % of control and 89 % of control.
`N=C(N)SCCCCCCCCCCSC(=N)N`: the T/C by setting is: under setting [4], 100 % of control and 90 % of control; under setting [5], 98 % of control and 100 % of control; under setting [6], 106 % of control.
Take `COc1ccc(-c2ccc(Cc3ccc(-c4ccc(OC)cc4)o3)o2)cc1`: the T/C runs as follows: under setting [10], 94 % of control; (dose: 100.0 mg/kg/injection, schedule: Q01DX005 (ip), vehicle: saline with Tween-80) 91 % of control; (dose: 200.0 mg/kg/injection, schedule: Q01DX005 (ip), vehicle: saline with Tween-80) 91 % of control.
Consider `NNC(=S)Nc1ccccc1`, for which the T/C was 104 % of control (dose: 1.25 mg/kg/injection, schedule: Q01DX009 (ip), vehicle: saline with Tween-80); 100 % of control (dose: 2.5 mg/kg/injection, schedule: Q01DX009 (ip), vehicle: saline with Tween-80); 95 % of control (dose: 5.0 mg/kg/injection, schedule: Q01DX009 (ip), vehicle: saline with Tween-80).
`CC1(C)SC2C(NC(=O)C(N)c3ccccc3)C(=O)N2C1C(=O)O` (configuration not stated): the T/C reads like this: under setting [11], 95 % of control; (dose: 150.0 mg/kg/injection, schedule: Q01DX009 (ip), vehicle: saline with Tween-80) 100 % of control; under setting [12], 100 % of control; (dose: 300.0 mg/kg/injection, schedule: Q01DX009 (ip), vehicle: saline with Tween-80) 109 % of control; (dose: 400.0 mg/kg/injection, schedule: Q04DX003 (ip), vehicle: saline with Tween-80) 100 % of control; (dose: 600.0 mg/kg/injection, schedule: Q01DX009 (ip), vehicle: saline with Tween-80) 109 % of control.
Turning to `CCOC(=O)C1=C(C(=O)c2ccc(OC)cc2)C(c2cccc([N+](=O)[O-])c2)C(C(=O)c2ccc(OC)cc2)=C(C(=O)OCC)N1`, the T/C (dose: 30.0 mg/kg/injection, schedule: Q01DX005 (ip), vehicle: saline with Tween-80) is 93 % of control; the T/C (dose: 60.0 mg/kg/injection, schedule: Q01DX005 (ip), vehicle: saline with Tween-80) was 90 % of control and 96 % of control; the T/C (dose: 120.0 mg/kg/injection, schedule: Q01DX005 (ip), vehicle: saline with Tween-80) was 94 % of control; the T/C (dose: 240.0 mg/kg/injection, schedule: Q01DX005 (ip), vehicle: saline with Tween-80) was 90 % of control.
As for `NC(=S)N/N=C\c1nccc2ccc(N)cc12`, the T/C under setting [6] is 94 % of control.
With `CCOC(=O)C(=CN(C)c1ccc(C)cc1)C(=O)OCC`, the T/C under setting [6] is 100 % of control, the T/C under setting [13] is 103 % of control and the T/C under setting [14] is 95 % of control.
In the case of `O=NNc1cnccn1`, the T/C reads like this: (dose: 1.56 mg/kg/injection, schedule: Q01DX009 (ip), vehicle: water) 100 % of control; (dose: 3.12 mg/kg/injection, schedule: Q01DX009 (ip), vehicle: water) 109 % of control and 100 % of control; (dose: 6.25 mg/kg/injection, schedule: Q01DX009 (ip), vehicle: water) 110 % of control and 112 % of control and 97 % of control; (dose: 12.5 mg/kg/injection, schedule: Q01DX009 (ip), vehicle: water) 116 % of control and 122 % of control; (dose: 25.0 mg/kg/injection, schedule: Q01DX009 (ip), vehicle: water) 150 % of control; (dose: 25.3 mg/kg/injection, schedule: Q01DX009 (ip), vehicle: other) 161 % of control. The T/C (dose: 25.3 mg/kg/injection, schedule: Q01DX009 (ip), vehicle: water) is 170 % of control; the T/C (dose: 37.5 mg/kg/injection, schedule: Q01DX009 (ip), vehicle: water) is 224 % of control and 245 % of control and 271 % of control; the T/C (dose: 38.0 mg/kg/injection, schedule: Q01DX009 (ip), vehicle: other) is 225 % of control; the T/C (dose: 50.0 mg/kg/injection, schedule: Q01DX009 (ip), vehicle: water) was 118 % of control [middle of 5 runs]; the T/C (dose: 57.0 mg/kg/injection, schedule: Q01DX009 (ip), vehicle: water) was 112 % of control.
